Data as given in US6783952B1, “Secreted soluble α2δ-2, α2δ-3 or α2δ-4 calcium channel subunit polypeptides and screening assays using same” (Warner-Lambert Company, priority 1999, dated 2004).

The molecules below were run against [^3H]gabapentin site in porcine cortical membranes (Sus scrofa, UniProt O77773) (assay: [3H]gabapentin binding site competition in porcine cortical membranes). Conditions: read-out: IC50 arithmetic mean (N = 3) ± S.E.M., binding affinity for the [3H]gabapentin site, mean of n = 3 ± S.E.M.
[^3H]gabapentin site in porcine cortical membranes, sequence (O77773 25-1091): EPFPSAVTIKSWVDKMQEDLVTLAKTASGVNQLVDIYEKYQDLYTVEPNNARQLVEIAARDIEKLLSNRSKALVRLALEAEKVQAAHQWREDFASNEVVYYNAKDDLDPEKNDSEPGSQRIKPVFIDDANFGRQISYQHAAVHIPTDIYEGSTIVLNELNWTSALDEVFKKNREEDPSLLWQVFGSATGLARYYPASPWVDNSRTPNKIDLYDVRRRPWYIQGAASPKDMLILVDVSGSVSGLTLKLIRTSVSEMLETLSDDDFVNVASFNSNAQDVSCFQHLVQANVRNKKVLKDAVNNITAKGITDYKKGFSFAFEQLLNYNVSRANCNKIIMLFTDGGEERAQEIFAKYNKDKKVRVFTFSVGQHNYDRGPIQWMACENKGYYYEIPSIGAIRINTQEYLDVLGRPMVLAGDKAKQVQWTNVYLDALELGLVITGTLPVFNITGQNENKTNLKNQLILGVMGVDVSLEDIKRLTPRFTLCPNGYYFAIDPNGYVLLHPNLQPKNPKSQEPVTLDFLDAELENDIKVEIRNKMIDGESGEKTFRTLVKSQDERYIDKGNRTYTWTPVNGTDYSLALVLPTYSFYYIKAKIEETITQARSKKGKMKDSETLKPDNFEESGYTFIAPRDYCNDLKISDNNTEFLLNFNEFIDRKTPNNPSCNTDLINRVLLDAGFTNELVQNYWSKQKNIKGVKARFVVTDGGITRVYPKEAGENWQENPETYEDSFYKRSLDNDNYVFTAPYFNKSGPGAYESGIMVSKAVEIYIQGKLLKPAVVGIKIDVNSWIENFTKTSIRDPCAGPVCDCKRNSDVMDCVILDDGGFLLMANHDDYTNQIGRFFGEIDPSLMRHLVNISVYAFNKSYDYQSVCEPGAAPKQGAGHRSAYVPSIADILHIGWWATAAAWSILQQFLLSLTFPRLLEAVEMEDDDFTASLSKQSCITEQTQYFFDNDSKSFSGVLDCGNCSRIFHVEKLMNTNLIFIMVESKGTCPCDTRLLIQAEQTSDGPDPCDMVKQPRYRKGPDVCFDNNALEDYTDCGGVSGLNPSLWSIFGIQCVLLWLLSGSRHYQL

SMILES | IC50 [nM]
CC[C@@H](C)[C@H](N)C(=O)O [L-Allo-Isoleucine] | 32.8 ± 6
CC[C@H](C)[C@H](N)C(=O)O [L-Isoleucine] | 68.8 ± 1.9
CC(C)C[C@H](N)C(=O)O [L-Leucine] | 61.3 ± 20.9
CSCC[C@H](N)C(=O)O [L-Methionine] | 49.6 ± 10
CCCC[C@H](N)C(=O)O [L-Norleucine] | 23.6 ± 6.7
N[C@@H](Cc1ccccc1)C(=O)O [L-Phenylalanine] | 351 ± 89
CC(C)[C@H](N)C(=O)O [L-Valine] | 330 ± 18
